Results: patent US10821100B2, “Triazolone compounds as mPGES-1 inhibitors” (Glenmark Pharmaceuticals S.A., priority 2012, dated 2020)

Target: T1, Recombinant human mPGES-1 (Homo sapiens, UniProt O14684)
T1 construct: made in house; host or cells: CHO cells (crude microsomal fractions)
T1 sequence (O14684 1-152): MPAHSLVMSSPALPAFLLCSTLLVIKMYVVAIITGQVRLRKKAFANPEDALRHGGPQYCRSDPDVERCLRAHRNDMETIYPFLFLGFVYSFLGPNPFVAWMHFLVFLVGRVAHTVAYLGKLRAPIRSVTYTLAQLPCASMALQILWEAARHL
Test: In-vitro screening of mPGES-1 inhibitors (inhibition of PGE2 formation from PGH2, HTRF detection)
Format: biochemical
Conditions: mPGES-1 enzyme; for inhibition at 1 µM: 1 μM test compound, read-out: Percentage inhibition at 1 μM; for inhibition at 1 µM / inhibition at 10 µM: crude microsomal fractions; for inhibition at 10 µM: 10 μM test compound, read-out: Percentage inhibition at 10 μM; for IC50: class symbols
Outline: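 Crude CHO-expressed microsomes (40–60 μg/mL protein) preincubated 10 min with compound in 0.1 M potassium phosphate/2 mM EDTA containing 2.5 mM GSH, 0.5% DMSO final. PGH2 (15 μM) reacted 1 min, stopped with stannous chloride. PGE2 quantified by HTRF, IC50 from nonlinear regression of percent inhibition.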

| SMILES | inhibition at 1 µM [%] | inhibition at 10 µM [%] | IC50 [nM] |
| --- | --- | --- | --- |
| CC(C)(C)C(=O)NCc1ccc(Cl)c(-c2nn(-c3ccc(C(F)(F)F)c(F)c3)c(=O)[nH]2)c1 [Example-160, N-(4-Chloro-3-(1-(3-fluoro-4-(trifluoromethyl)phenyl)-4,5-dihydro-5-oxo-1H-1,2,4-triazol-3-yl)benzyl)pivalamide] | 96.6 | 97.3 | < 50 |
| CC(C)C(=O)NCc1ccc(Cl)c(-c2nn(-c3ccc(C(F)(F)F)c(F)c3)c(=O)[nH]2)c1 [Example-161, N-(4-Chloro-3-(1-(3-fluoro-4-(trifluoromethyl)phenyl)-4,5-dihydro-5-oxo-1H-1,2,4-triazol-3-yl)benzyl)isobutyramide] | 98 | 99.4 | < 50 |
| CC(C)S(=O)(=O)NCc1ccc(Cl)c(-c2nn(-c3ccc(C(F)(F)F)cc3)c(=O)[nH]2)c1 [Example-162, N-(4-Chloro-3-{5-oxo-1-[4-(trifluoromethyl)phenyl]-4,5-dihydro-1H-1,2,4-triazol-3-yl}benzyl)propane-2-sulfonamide] | 99.3 | 99.3 | < 50 |
| CC(C)(C)C(=O)NCc1ccc(Cl)c(-c2nn(-c3ccc(C(F)(F)F)cc3F)c(=O)[nH]2)c1 [Example-163, N-(4-Chloro-3-(1-(2-fluoro-4-(trifluoromethyl)phenyl)-4,5-dihydro-5-oxo-1H-1,2,4-triazol-3-yl)benzyl)pivalamide] | 91.8 | 98.7 | < 50 |
| Cc1ccc(CNC(=O)C(C)C)c(C)c1-c1nn(-c2ccc(C#CC(C)(C)C)cc2)c(=O)[nH]1 [Example-164, N-(3-(4,5-Dihydro-1-(4-(3,3-dimethylbut-1-ynyl)phenyl)-5-oxo-1H-1,2,4-triazol-3-yl)-2,4-dimethylbenzyl)isobutyramide] | 98.3 | 97.2 | < 50 |
| Cc1ccc(CNC(=O)C(C)(C)C)c(C)c1-c1nn(-c2ccc(C#CC3CC3)cc2)c(=O)[nH]1 [Example-165, N-(3-(1-(4-(2-Cyclopropylethynyl)phenyl)-4,5-dihydro-5-oxo-1H-1,2,4-triazol-3-yl)-2,4-dimethylbenzyl)pivalamide] | 97.9 | 99.5 | < 50 |
| CC(C)(C)C(=O)NCc1ccc(Cl)c(-n2nc(-c3ccc(C#CC4CC4)c(F)c3)[nH]c2=O)c1 [Example-166, N-(4-Chloro-3-(3-(4-(2-cyclopropylethynyl)-3-fluorophenyl)-4,5-dihydro-5-oxo-1,2,4-triazol-1-yl)benzyl)pivalamide] | 99.7 | 100 | < 50 |
| CC(C)(C)C(=O)NCc1ccc(Cl)c(-c2nn(-c3ccc(C#CC4CC4)cc3)c(=O)[nH]2)c1 [Example-167, N-(4-Chloro-3-(1-(4-(2-cyclopropylethynyl)phenyl)-4,5-dihydro-5-oxo-1H-1,2,4-triazol-3-yl)benzyl)pivalamide] | 99 | 98.4 | < 50 |
| CC(C)(C)C(=O)NCc1ccc(Cl)c(-n2nc(-c3ccc(C#CC4CC4)cc3F)[nH]c2=O)c1 [Example-168, N-(4-Chloro-3-(3-(4-(2-cyclopropylethynyl)-2-fluorophenyl)-4,5-dihydro-5-oxo-1,2,4-triazol-1-yl)benzyl)pivalamide] | 100 | 98.9 | < 50 |
| Cc1ccc(CNC(=O)C(C)(C)CF)c(C)c1-c1nn(-c2ccc(C#CC3CC3)cc2)c(=O)[nH]1 [Example-169, N-(3-(1-(4-(2-Cyclopropylethynyl)phenyl)-4,5-dihydro-5-oxo-1H-1,2,4-triazol-3-yl)-2,4-dimethylbenzyl)-3-fluoro-2,2-dimethylpropanamide] | 95.5 | 99.2 | > 100 |
| Cc1ccc(CNC(=O)C(C)C)c(C)c1-c1nn(-c2ccc(C#CC(C)(C)C)c(F)c2)c(=O)[nH]1 [Example-170, N-(3-(1-(3-Fluoro-4-(3,3-dimethylbut-1-ynyl)phenyl)-4,5-dihydro-5-oxo-1H-1,2,4-triazol-3-yl)-2,4-dimethylbenzyl)isobutyramide] | 99.8 | 98.9 | < 50 |
| COc1cc(-c2nn(-c3c(Cl)cccc3Cl)c(=O)[nH]2)ccc1C#Cc1cc(Cl)ccc1Cl [Example-171, 2-(2,6-Dichlorophenyl)-5-(4-(2-(2,5-dichlorophenyl)ethynyl)-3-methoxyphenyl)-2H-1,2,4-triazol-3 (4H)-one] | 95.2 | 99.6 | < 50 |
| Cc1cc(C)n(Cc2ccc(-c3nn(-c4cc(CNC(=O)C(C)(C)C)ccc4Cl)c(=O)[nH]3)cc2)n1 [Example-172, N-(4-Chloro-3-(4,5-dihydro-3-(4-((3,5-dimethyl-1H-pyrazol-1-yl)methyl)phenyl)-5-oxo-1,2,4-triazol-1-yl)benzyl)pivalamide] | 91.9 | 99 | > 100 |
| CC(C)(C)C(=O)NCc1ccc(Cl)c(-c2nn(-c3ccc(C(F)(F)F)c(F)c3)c(=O)[nH]2)c1F [Example-173, N-(4-Chloro-2-fluoro-3-(1-(3-fluoro-4-(trifluoromethyl)phenyl)-4,5-dihydro-5-oxo-1H-1,2,4-triazol-3-yl)benzyl)pivalamide] | 96.8 | 99 | < 50 |
| CC(C)(C)C(=O)NCc1ccc(Cl)c(-c2nn(-c3ccc(Cl)c(C(F)(F)F)c3)c(=O)[nH]2)c1F [Example-174, N-(4-Chloro-3-(1-(4-chloro-3-(trifluoromethyl)phenyl)-4,5-dihydro-5-oxo-1H-1,2,4-triazol-3-yl)-2-fluorobenzyl)pivalamide] | 99.9 | 100 | < 50 |

Second part, the molecule after the results:

| inhibition at 1 µM [%] | inhibition at 10 µM [%] | IC50 [nM] | SMILES |
| --- | --- | --- | --- |
| 99.4 | 99.4 | < 50 | CC(C)(CF)C(=O)NCc1ccc(Cl)c(-c2nn(-c3ccc(C(F)(F)F)cc3)c(=O)[nH]2)c1 [Example-175, N-(4-Chloro-3-(1-(4-(trifluoromethyl)phenyl)-4,5-dihydro-5-oxo-1H-1,2,4-triazol-3-yl)benzyl)-3-fluoro-2,2-dimethylpropanamide] |
| 45.8 | 89.5 | – | COc1cc(-c2nn(-c3c(Cl)cccc3Cl)c(=O)[nH]2)ccc1NC(=O)c1ccc(C(F)(F)F)cc1 [Example-176, N-(4-(1-(2,6-Dichlorophenyl)-4,5-dihydro-5-oxo-1H-1,2,4-triazol-3-yl)-2-methoxyphenyl)-4-(trifluoromethyl)benzamide] |
| 29.9 | 71.1 | – | COc1cc(-c2nn(-c3c(Cl)cccc3Cl)c(=O)[nH]2)ccc1NC(=O)c1cc(F)cc(F)c1 [Example-177, N-(4-(1-(2,6-Dichlorophenyl)-4,5-dihydro-5-oxo-1H-1,2,4-triazol-3-yl)-2-methoxyphenyl)-3,5-difluorobenzamide] |
| 42.7 | 91.5 | – | COc1cc(-c2nn(-c3c(Cl)cccc3Cl)c(=O)[nH]2)ccc1C(=O)Nc1cc(C(F)(F)F)ccc1F [Example-178, 4-(1-(2,6-Dichlorophenyl)-4,5-dihydro-5-oxo-1H-1,2,4-triazol-3-yl)-N-(2-fluoro-5-(trifluoromethyl)phenyl)-2-methoxybenzamide] |
| 50.6 | 95.2 | – | COc1cc(-c2nn(-c3c(Cl)cccc3Cl)c(=O)[nH]2)ccc1C(=O)Nc1ccc(C)cc1Cl [Example-179, N-(2-Chloro-4-methylphenyl)-4-(1-(2,6-dichlorophenyl)-4,5-dihydro-5-oxo-1H-1,2,4-triazol-3-yl)-2-methoxybenzamide] |
| 72.3 | 92.5 | > 100 | CC(C)(C)C(=O)NCc1cnc(C2CC2)c(-c2nn(-c3ccc(C(F)(F)F)cc3)c(=O)[nH]2)c1 [Example-180, N-((6-Cyclopropyl-5-(1-(4-(trifluoromethyl)phenyl)-4,5-dihydro-5-oxo-1H-1,2,4-triazol-3-yl)pyridin-3-yl)methyl)pivalamide] |
| 88.2 | 94.3 | < 50 | CC(C)(C)C(=O)NCc1ccc(Cl)c(-c2nn(-c3ccc(C#CC4CC4)cc3F)c(=O)[nH]2)c1 [Example-181, N-(4-Chloro-3-(1-(4-(2-cyclopropylethynyl)-2-fluorophenyl)-4,5-dihydro-5-oxo-1H-1,2,4-triazol-3-yl)benzyl)pivalamide] |
| 92.9 | 94 | < 50 | CC(C)(C)S(=O)(=O)NCc1ccc(Cl)c(-c2nn(-c3ccc(C(F)(F)F)cc3)c(=O)[nH]2)c1 [Example-182, N-(4-Chloro-3-(5-oxo-1-(4-(trifluoromethyl)phenyl)-4,5-dihydro-1H-1,2,4-triazol-3-yl)benzyl)-2-methylpropane-2-sulfonamide] |
| 41.5 | 85.5 | – | N#Cc1cnc(C(F)F)c(-c2nn(-c3ccc(C(F)(F)F)cc3)c(=O)[nH]2)c1 [Example-183, 6-(Difluoromethyl)-5-(5-oxo-1-(4-(trifluoromethyl)phenyl)-4,5-dihydro-1H-1,2,4-triazol-3-yl)nicotinonitrile] |
| 98.6 | 94.3 | < 50 | O=C(NCc1ccc(Cl)c(-c2nn(-c3ccc(C(F)(F)F)cc3)c(=O)[nH]2)c1)C1CCC1 [Example-184, N-(4-Chloro-3-(5-oxo-1-(4-(trifluoromethyl)phenyl)-4,5-dihydro-1H-1,2,4-triazol-3-yl)benzyl)cyclobutanecarboxamide] |
